Test results as given in paper PMC9663175, “Cryo-EM structures reveal the activation and substrate recognition mechanism of human enteropeptidase” (Nature Communications, 2022).

Biological target: human enteropeptidase (hEP), enterokinase (Homo sapiens, UniProt P98073)
Test: cryo-EM structure of inhibited hEP-core ([…] Å); SPR affinity; enzyme activity inhibition
Format: binding
Set-up: gene TMPRSS15; hEP-core resolved; SPR: commercial hEP

Chain of human enteropeptidase (hEP), enterokinase (P98073 182-784): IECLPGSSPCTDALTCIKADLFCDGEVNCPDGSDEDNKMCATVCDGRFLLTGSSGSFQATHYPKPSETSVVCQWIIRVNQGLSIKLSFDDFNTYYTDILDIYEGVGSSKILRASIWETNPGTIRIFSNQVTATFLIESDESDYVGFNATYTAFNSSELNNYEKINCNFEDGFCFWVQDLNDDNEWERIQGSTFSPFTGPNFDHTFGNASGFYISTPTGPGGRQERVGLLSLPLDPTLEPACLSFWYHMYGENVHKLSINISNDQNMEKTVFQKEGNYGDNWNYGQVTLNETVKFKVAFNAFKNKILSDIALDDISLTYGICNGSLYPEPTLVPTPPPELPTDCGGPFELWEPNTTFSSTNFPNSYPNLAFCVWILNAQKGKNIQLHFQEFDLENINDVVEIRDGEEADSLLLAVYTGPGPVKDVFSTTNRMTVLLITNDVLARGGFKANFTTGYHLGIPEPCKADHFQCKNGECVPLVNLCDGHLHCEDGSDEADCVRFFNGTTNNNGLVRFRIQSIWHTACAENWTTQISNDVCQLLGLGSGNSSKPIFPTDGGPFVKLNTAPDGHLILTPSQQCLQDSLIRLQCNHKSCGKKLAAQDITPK
Chain of human enteropeptidase (hEP), enterokinase (P98073 785-1019): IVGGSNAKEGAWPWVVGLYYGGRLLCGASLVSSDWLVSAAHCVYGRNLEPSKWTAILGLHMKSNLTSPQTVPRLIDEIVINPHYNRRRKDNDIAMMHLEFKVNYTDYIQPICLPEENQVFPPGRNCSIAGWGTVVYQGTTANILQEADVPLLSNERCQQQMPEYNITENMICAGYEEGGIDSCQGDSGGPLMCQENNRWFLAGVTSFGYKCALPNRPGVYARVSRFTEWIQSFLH

N=C(N)c1ccc2cc(OC(=O)c3ccc(N=C(N)N)cc3)ccc2c1 [nafamostat]
Kd: 95.1 µM
